Measured values reported in patent publication US20060229355A1, “3.3'-Diindolylmethane compositions inhibit angiogenesis” (priority 2005, published 2006).

Assays:
HUVECs [1] = test: Cell proliferation assay (HUVEC cell counting); assay type: cell-based, human
Method: Antiangiogenic effects of the DIM analogs are pre-screened with vascular endothelial cells proliferation assays. […] Cells were then treated by 0, 2, 5, 10, or 25 μM DIM candidate at 24, 48, and 72 h. DIM was dissolved in DMSO as 1000× stock solutions for each treatment. Cell numbers were assessed at various time points by trypsinization and counting with a Coulter Z1 cell counter, as described below in Example I below. Cell proliferation assay. To determine endothelial cell proliferation, approximately 8×10^4 HUVECs were seeded in 6-well plates and allowed to grow for 24 h. Cells were then treated by 0, 2, 5, 10, or 25 μM DIM at 24, 48, and 72 h. DIM was dissolved in DMSO as 1000× stock solutions for each treatment. Cell numbers were assessed at various time points by trypsinization and counting with a Coulter Z1 cell counter. DIM inhibits proliferation, invasion, migration and tube formation of HUVECs. […] First, DIM's effect on proliferation of human vascular endothelial cell (HUVECs) was examined. HUVECs were treated with 0, 2, 5, 10, or 25 μM DIM for 24 to 72 h. DIM inhibited HUVECs proliferation in a concentration- and time-dependent manner, with up to 70% inhibition of proliferation at 72 h treatment with 25 μM DIM.

HUVECs [2] = test: Cell invasion assay (Matrigel-coated transwell Boyden chamber); assay type: cell-based, human
Method: Cell invasion assay. Invasion assays were carried out using modified transwell Boyden chamber system. Chambers were assembled using 8 μm-pore BD Falcon transwell inserts as upper chambers, and the 12-well plates as lower chambers. Cell culture inserts were coated with 10 μl/insert Matrigel. Coated inserts were left to dry overnight in a laminar flow fume hood and then rehydrated with DMEM supplemented with 0.1% BSA for 1 h at 37° C. Rehydrated Matrigel wells were washed with the same medium. HUVECs were harvested by trypsin/EDTA and resuspended in 0.1% BSA/DMEM. Medium containing 5% FBS was applied to the lower chamber as chemoattractant, then cells were seeded at 1.5×10^5 cells/insert in the presence of 0, 5, 10 or 25 μM DIM and incubated for 2 h at 37° C. and 5% CO2. At the end of the incubation, the cells in the upper chamber were removed with cotton swabs and cells that traversed the Matrigel to the lower surface of the insert were fixed with 10% formalin/PBS and stained with crystal violet in 10% formalin/PBS. Cells that migrated to the lower surface of the insert were counted under the light microscope at a magnification of 40×. Each treatment was in triplicate. The quantification of the invasive cells in the presence of DIM was expressed as the percentage of the quantity of invasive cells under control conditions (DMSO). We next conducted a cell invasion assay to examine the effect of DIM on HUVEC movement through a simulated extracellular matrix. In a modified Boyden chamber assay, the transwell inserts were coated with a thin layer of Matrigel and inserted into wells containing 5% FBS medium as a chemoattractant. As a negative control, serum-free medium containing 0.1% BSA was used in the lower chamber wells. Cells which transversed the Matrigel and migrated to the lower part of the insert were photographed and quantified. […] In response to 5% FBS, however, HUVECs traversed the Matrigel and migrated to the lower chamber. The invasion of HUVECs was decreased by DIM in a concentration-dependent manner, in which DIM at 25 μM decreased cell invasion to 52% of the control.

HUVECs [3] = test: Wound migration assay; assay type: cell-based; details: Homo sapiens, HUVEC; 25 μM DIM, 18 h incubation; read-out: number of cells migrating across the wound, % of control
Method: Wound migration assay. Migration was assessed using an in vitro wound assay. One hundred thousands cells were seeded into two 12-well cell culture plates and cultured in EGM-MV BulletKit to confluency. A scrape was made in the center of the cell monolayers with a sterile pipette tip to create a gap of constant width. Cellular debris was removed by gently washing with PBS. The initial images of the wounds were captured under phase contrast microscopy and the wounded monolayers were incubated further for 18 h in fresh EGM-MV BulletKit medium in the presence of DMSO or DIM of various concentrations (5, 10, or 25 μM). Pictures were taken with a Nikon Coolpix990 digital camera connected to the Nikon Eclipse TS 100 microscope at a 100× magnification. To quantify the migration, photographs of the initial wounded monolayers were compared with the corresponding images of cells at the end of the incubation. […] Cells that migrated across the lines were counted. All quantification were done on full-size images with the weight of artificial lines negligible compared to the size of the cell body. At least 5 fields from each triplicate treatment were counted. […] To quantify the migration, artificial lines fitting the cutting edges were drawn on pictures of the original wounded cells and overlaid on images of cells after incubation. Cells that migrated across the lines were counted. […]

HUVECs [4] = test: Tube formation assay on Matrigel; assay type: cell-based, human; details: 24 h pre-treatment, 10 μM DIM, 3-h incubation
Method: Tube formation assay. Endothelial cells plated onto a gel of basement membrane protein rapidly organize into multicellular tube-like structures [12; 13]. Twelve-well cell culture plates coated with Matrigel were ordered from BD-Discovery Labware and assay was performed according to the manufacturer's instruction. Briefly, Matrigel-coated 12-well plates were allowed to solidify at 37° C. for 1 h. Endothelial cells pre-treated with 0, 10, or 25 μM DIM for 24 h were trypsinized and 6×10^4 cells were added per well in 1 mL medium. Cell viability was determined by trypan blue exclusion stain before seeding. DIM treatments continued for the rest of the assay. Tube formation was observed periodically over time under a phase contrast microscope, and representative pictures were taken at 3 h and 24 h. In a further assay of angiogenesis, we examined the effect of DIM on HUVEC tube formation in culture. Capillary formation on Matrigel is a process that requires cell-matrix interaction. For the assay, HUVECs were pre-treated without or with 10 or 25 μM of DIM for 24 h and then seeded on a thin layer of Matrigel. Capillary tube structure formation was obvious at 3 h of incubation and was almost completed at 24 h in the control medium.

HUVECs [5] = test: Cell cycle analysis by flow cytometry; assay type: cell-based, human; details: 24 h
Method: DIM induces a G1 cell cycle arrest in HUVECs. To further characterize the antiproliferative activity of DIM in HUVECs, we examined the effects of this indole on cell cycle regulation. For the cell cycle studies, HUVECs treated with vehicle control or 25 μM DIM for 24 h were analyzed by flow cytometry as described above.

CDK2 = test: Western blot of G1 cell cycle components in HUVECs: CDK2; assay type: cell-based, human; details: 25 μM DIM
Source text: (§1) DIM down-regulates CDK2 and CDK6, and up-regulates CDK inhibitor p27^Kip1 in HUVECs. […] To examine this possibility, the expressions of G1 cell cycle components were investigated by Western blot analysis.

CDK6 = test: Western blot of G1 cell cycle components in HUVECs: CDK6; assay type: cell-based, human; details: 25 μM DIM
Source text: as §1

p27^Kip1 = test: Western blot of G1 cell cycle components in HUVECs: p27Kip1; assay type: cell-based, human; details: 25 μM DIM
Source text: as §1

CDK4 = test: Western blot of G1 cell cycle components in HUVECs: CDK4; assay type: cell-based, human; details: DIM treatment
Source text: as §1

cyclin E = test: Western blot of G1 cell cycle components in HUVECs: cyclin E; assay type: cell-based, human; details: DIM treatment
Source text: as §1

p21^Waf1/CiP1 = test: Western blot of G1 cell cycle components in HUVECs: p21Waf1/Cip1; assay type: cell-based, human; details: DIM treatment
Source text: as §1

[6] = system: neovascularization of Matrigel plugs; test: Matrigel plug angiogenesis assay (hemoglobin content); assay type: in vivo, C57BL/6 mice; details: 5 mg/kg s.c., from five days before Matrigel inoculation and 2 more weeks
Method: Matrigel plug angiogenesis assay. In vivo angiogenesis assays were performed on female C57BL/6 mice as described before. Mice were acclimated to semi-purified phytoestrogen-free AIN-76 ad libitum for 7 days prior to the study and randomly grouped (5/group). DMSO vehicle or DIM at 5 mg/kg was injected s.c. five days before Matrigel inoculation. Heparin (64 Unit/mL) and aFGF (100 ng/mL) were gently mixed with cold liquid Matrigel at 4° C. The Matrigel solution (0.3 ml) was injected into mice s.c. in the bilateral flanks. Animals were treated with DMSO control or DIM for 2 more weeks and terminated by CO2 inhalation. The gels were surgically removed and vascularization of Matrigel plugs was quantified by measuring hemoglobin content using Drabkin Reagent kit 525. DIM reduces in vivo angiogenesis. Using a rodent Matrigel plug angiogenesis assay, we next investigated whether DIM affects neovascularization in vivo. Matrigel is a urea extract of Engelbreth-Holm-Swarm (EHS) tumor, which contains laminin, collagen IV, heparan sulfate proteoglycan, and several growth factors, all of which are present in the authentic basement membrane of solid tumors. When injected subcutaneously into rodents, Matrigel forms a solid “plug” beneath the skin. The hemoglobin content in the Matrigel parallels blood vessels development in the gel, thereby allowing quantitation. […]

[7] = system: MCF-7 human breast cancer cells; test: MCF-7 human breast carcinoma xenograft in athymic mice; assay type: in vivo, athymic (nu/nu) mice; details: 5 mg/kg s.c. five times weekly
Method: (§2) II. Antiangiogenic DIM inhibits human breast carcinoma in xenograft model. Twenty female athymic (nu/nu) mice were acclimated to semi-purified phytoestrogen-free AIN-76 ad libitum for 7 days prior to the study. They were implanted with a 60-d release 0.72 mg estradiol pellet in the subscapular region. Mice were then inoculated s.c. in the bilateral flanks with 0.1 mL Matrigel containing 3×10^6 MCF-7 human breast cancer cells and randomly grouped (10/group) to receive s.c. injections of either 5 mg/kg DIM or DMSO in a PBS vehicle, five times weekly. Feed intake, body weight were measured weekly and palpable tumor diameter were measured twice per week. Tumor volumes were calculated as: (π/6)×[length(mm)×width^2(mm)] [15]. The experiment was terminated at 34 days. All animals were killed by CO2 asphyxiation.
(§3) DIM inhibits the growth of transplanted MCF-7 human breast carcinoma cells. Since we observed an inhibition of in vivo angiogenesis by DIM in the Matrigel plug assay, we determined whether DIM could inhibit the growth of transplanted breast carcinoma cells in female athymic (nu/nu) mice. Mice were injected s.c. with MCF-7 human breast cancer cells in the bilateral flanks. Mice were randomly assigned (10 mice/group) to receive s.c. injection of either DIM at 5 mg/kg dose or vehicle control DMSO in PBS, five times weekly. Feed intake, body weight and palpable tumor diameter were measured twice per week. Feed intake (22.2±1.3 g/wk vs. 22.9±1.0 g/wk) and body weight gain (2.3±0.2 g vs. 2.4±0.2 g) were not altered by DIM administration. […] Tumor volumes were calculated as: (π/6)×[length(mm)×width^2(mm^2)].

[8] = Toxicity observations in MCF-7 xenograft study (feed intake, body weight, organ weights); assay type: in vivo, athymic (nu/nu) mice; details: 5 mg/kg s.c. five times weekly
Method: as §2, §3

c1ccc2c(Cc3c[nH]c4ccccc34)c[nH]c2c1 [DIM, 3,3′-Diindolylmethane]
inhibition of proliferation (in words) (HUVECs [1]; 5 μM DIM, 72 h): Significant inhibition of proliferation | inhibition at 25 µM (HUVECs [1]; Homo sapiens, HUVEC, 25 μM DIM, 72 h treatment): ≤ 70% | cell survival and viability (trypan blue exclusion) (HUVECs [1]; conditions of the proliferation assay, 0-25 μM, 24-72 h): not obviously affected | cell invasion (in words) (HUVECs [2]; 5 μM DIM): trend of decreased cell invasion | cell invasion (in words) (HUVECs [2]; 10 μM DIM): more significant effect | cell invasion, % of the control (HUVECs [2]; 25 μM DIM, 5% FBS chemoattractant, 2 h): 52% | activity at 25 µM (HUVECs [3]): 40% | capillary tube structure formation (in words) (HUVECs [4]): decreased ability to extend and differentiate into tube-like structures | cell population in G1 phase (in words) (HUVECs [5]; 5 μM DIM, asynchronous growing cells): increased the cell population in G1 phase | proportion of S phase cells (HUVECs [5]; 25 μM DIM, vehicle control 15.2±1.3): 2.4±0.9% | proportion of cells in the G1 phase (HUVECs [5]; 25 μM DIM, vehicle control 71.8±2.5%): 85.7±2.9% | CDK2 expression, % of the control (CDK2): 35% | CDK6 expression, % of the control (CDK6): 40% | p27Kip1 expression, fold of the control (p27^Kip1): ~3.5 fold | level of CDK4 (CDK4): not significantly affected | level of cyclin E (cyclin E): not significantly affected | level of p21Waf1/Cip1 (p21^Waf1/CiP1): not significantly affected | reduction of neovascularization compared to controls (hemoglobin content) [6]: up to 76% | reduction of tumor growth ([7]; after 3 weeks (P=0.22)): 40% | final average tumor volume ([7]; day 34, control 3121±554.5 mm^3): 1125±434 mm^3 | reduction of tumor growth ([7]; termination at day 34 (P<0.05)): 64% | body weight gain [8]: not altered | feed intake [8]: not altered | relative organ weights [8]: not significantly affected
